Laboratory results as given in patent US10815204B2, “Process for the preparation of diphenylpyrazine derivatives” (HONOUR (R&D), priority 2016, dated 2020).

Experiments:
Assay type in all cases: physicochemical
[1] = Stability of Selexipag amorphous form on storage, solid form by PXRD
Method: X-ray powder diffraction spectrum was measured on a bruker axs D8 advance X-ray powder diffractometer having a copper-a radiation. Adequate sample was gently flattered on a sample holder and scanned from 2 to 50 degrees two-theta, at 0.02 increment and scan speed of 0.2 Sec/Step. The sample was simply placed on the sample holder. The sample was rotated at 30 rpm at a voltage 40 KV and current 35 mA. In another aspect of the present invention, Selexipag amorphous form is stable at 5±3° C. and 25±2° C./RH (Relative humidity) 60±5%, 40±2° C./RH (Relative humidity) 75±5% and has the following stability data: […]

[2] = Storage stability of Selexipag amorphous form (statement); details: at 5±3° C. and 25±2° C./RH 60±5%, 40±2° C./RH 75±5%
Method: (§1) In another aspect of the present invention, Selexipag amorphous form is stable at 5±3° C. and 25±2° C./RH (Relative humidity) 60±5%, 40±2° C./RH (Relative humidity) 75±5% and has the following stability data: […]

[3] = Stability of Selexipag amorphous form on storage, Chromatographic Purity (by HPLC)
Method: as §1

[4] = 25 ± 2° C./RH 60 ± 5%, 1st month
[5] = 25 ± 2° C./RH 60 ± 5%, 2nd Month
[6] = 25 ± 2° C./RH 60 ± 5%, 3rd Month
[7] = 25 ± 2° C./RH 60 ± 5%, 4th Month
[8] = 25 ± 2° C./RH 60 ± 5%, 5th Month
[9] = 40 ± 2° C./RH 75 ± 5%, 1st month
[10] = 40 ± 2° C./RH 75 ± 5%, 2nd Month
[11] = 40 ± 2° C./RH 75 ± 5%, 3rd Month

In the case of `CC(C)N(CCCCOCC(=O)NS(C)(=O)=O)c1cnc(-c2ccccc2)c(-c2ccccc2)n1` [Selexipag amorphous form, 2-{4-[(5,6-diphenylpyrazin-2-yl)(isopropyl)amino]butoxy}-N-(methylsulfonyl)acetamide], the PXRD ([1]; 5 ± 3° C., 1st month) is reported as “Amorphous”, the PXRD ([1]; 5 ± 3° C., 2nd Month) is reported as “Amorphous” and the PXRD ([1]; 5 ± 3° C., 3rd Month) is reported as “Amorphous”. The PXRD ([1]; 5 ± 3° C., 4th Month) was “Amorphous”, the PXRD ([1]; 5 ± 3° C., 5th Month) was “Amorphous” and the PXRD ([1]; 5 ± 3° C., 6th Month) was “Amorphous”. For the same compound, the PXRD ([1]; 5 ± 3° C., Initial) was “Amorphous”, the PXRD [1, 4] was “Amorphous” and the PXRD [1, 5] was “Amorphous”. For the same compound, the PXRD [1, 6] was “Amorphous”, the PXRD [1, 7] was “Amorphous” and the PXRD [1, 8] was “Amorphous”. For the same compound, the PXRD ([1]; 25 ± 2° C./RH 60 ± 5%, Initial) was “Amorphous”, the PXRD [1, 9] was “Amorphous” and the PXRD [1, 10] was “Amorphous”. The PXRD [1, 11] was “Amorphous”, the PXRD ([1]; 40 ± 2° C./RH 75 ± 5%, Initial) was “Amorphous” and the stability on storage [2] was “stable”. For the same compound, the “Chromatographic Purity (by HPLC)” value ([3]; 5 ± 3° C., 1st month) was 99.63, the “Chromatographic Purity (by HPLC)” value ([3]; 5 ± 3° C., 2nd Month) was 99.66 and the “Chromatographic Purity (by HPLC)” value ([3]; 5 ± 3° C., 3rd Month) was 99.76. The “Chromatographic Purity (by HPLC)” value ([3]; 5 ± 3° C., 4th Month) was 99.76, the “Chromatographic Purity (by HPLC)” value ([3]; 5 ± 3° C., 5th Month) was 99.70 and the “Chromatographic Purity (by HPLC)” value ([3]; 5 ± 3° C., 6th Month) was 99.76. The “Chromatographic Purity (by HPLC)” value ([3]; 5 ± 3° C., Initial) was 99.63, the “Chromatographic Purity (by HPLC)” value [3, 4] was 99.63 and the “Chromatographic Purity (by HPLC)” value [3, 5] was 99.59. The “Chromatographic Purity (by HPLC)” value [3, 6] was 99.72, the “Chromatographic Purity (by HPLC)” value [3, 7] was 99.78 and the “Chromatographic Purity (by HPLC)” value [3, 8] was 99.69. The “Chromatographic Purity (by HPLC)” value ([3]; 25 ± 2° C./RH 60 ± 5%, 6th Month) was 99.68, the “Chromatographic Purity (by HPLC)” value ([3]; 25 ± 2° C./RH 60 ± 5%, Initial) was 99.63 and the “Chromatographic Purity (by HPLC)” value [3, 9] was 99.62. The “Chromatographic Purity (by HPLC)” value [3, 10] was 99.58, the “Chromatographic Purity (by HPLC)” value [3, 11] was 99.66 and the “Chromatographic Purity (by HPLC)” value ([3]; 40 ± 2° C./RH 75 ± 5%, 4th Month) was 99.69. The “Chromatographic Purity (by HPLC)” value ([3]; 40 ± 2° C./RH 75 ± 5%, 5th Month) was 99.66, the “Chromatographic Purity (by HPLC)” value ([3]; 40 ± 2° C./RH 75 ± 5%, 6th Month) was 99.65 and the “Chromatographic Purity (by HPLC)” value ([3]; 40 ± 2° C./RH 75 ± 5%, Initial) was 99.63.
